Experimental data taken from paper PMC10418113 (bioRxiv, 2023).

Assays:
[1] = target: T1, DLD (E3 subunit of purified porcine PDHC) (Sus scrofa, UniProt P09623); assay: diaphorase activity, NBT-formazan at […] nm and in-gel; format: biochemical; settings: 0.1 mg/mL NADH, 0.2 mg/mL NBT, 50 mM potassium phosphate pH 7.0
T1 sequence (P09623 36-509): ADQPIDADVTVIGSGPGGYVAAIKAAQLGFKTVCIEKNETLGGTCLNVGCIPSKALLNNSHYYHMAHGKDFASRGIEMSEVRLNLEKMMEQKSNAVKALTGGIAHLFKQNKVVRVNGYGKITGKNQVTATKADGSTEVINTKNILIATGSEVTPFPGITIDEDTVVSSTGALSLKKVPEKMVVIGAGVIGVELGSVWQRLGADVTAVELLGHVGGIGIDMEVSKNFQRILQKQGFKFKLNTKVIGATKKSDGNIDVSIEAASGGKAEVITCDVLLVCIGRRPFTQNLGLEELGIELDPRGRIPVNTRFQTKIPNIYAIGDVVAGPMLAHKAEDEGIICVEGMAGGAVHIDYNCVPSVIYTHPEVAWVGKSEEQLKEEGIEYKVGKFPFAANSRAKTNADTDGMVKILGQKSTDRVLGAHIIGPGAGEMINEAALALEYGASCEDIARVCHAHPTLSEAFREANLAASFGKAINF

[2] = target: BCKDC (E2 subunit DBT) (Mus musculus, UniProt P53395); assay: BCKDC activity of matrix lysate after preincubation, isovaleryl-CoA by LCMS; format: biochemical; settings: read-out: % inhibition at 0.1 μM
BCKDC (E2 subunit DBT), sequence (P53395 62-482): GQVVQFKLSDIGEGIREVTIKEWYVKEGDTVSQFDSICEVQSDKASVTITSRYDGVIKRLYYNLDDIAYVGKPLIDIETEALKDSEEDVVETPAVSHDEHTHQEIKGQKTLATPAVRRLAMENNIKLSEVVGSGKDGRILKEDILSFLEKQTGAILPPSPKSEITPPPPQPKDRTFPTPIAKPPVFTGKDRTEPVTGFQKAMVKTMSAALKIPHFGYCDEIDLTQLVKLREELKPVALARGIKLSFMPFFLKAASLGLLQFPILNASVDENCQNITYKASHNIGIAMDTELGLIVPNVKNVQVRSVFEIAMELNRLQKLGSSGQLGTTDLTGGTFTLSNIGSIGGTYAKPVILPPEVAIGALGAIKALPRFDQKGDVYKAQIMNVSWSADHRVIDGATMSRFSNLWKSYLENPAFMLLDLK
BCKDC (E2 subunit DBT), sequence (P50136 43-442 partner): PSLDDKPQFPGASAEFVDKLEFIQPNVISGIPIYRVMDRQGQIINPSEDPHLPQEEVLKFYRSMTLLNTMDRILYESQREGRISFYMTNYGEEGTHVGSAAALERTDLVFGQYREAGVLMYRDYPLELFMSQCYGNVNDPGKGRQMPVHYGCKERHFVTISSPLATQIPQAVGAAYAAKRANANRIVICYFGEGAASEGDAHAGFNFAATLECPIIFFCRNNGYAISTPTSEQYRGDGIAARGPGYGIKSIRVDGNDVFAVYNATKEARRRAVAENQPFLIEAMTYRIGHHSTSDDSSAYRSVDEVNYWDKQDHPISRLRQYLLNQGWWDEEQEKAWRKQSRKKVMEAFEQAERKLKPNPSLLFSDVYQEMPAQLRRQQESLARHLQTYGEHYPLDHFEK
BCKDC (E2 subunit DBT), sequence (Q6P3A8 49-390 partner): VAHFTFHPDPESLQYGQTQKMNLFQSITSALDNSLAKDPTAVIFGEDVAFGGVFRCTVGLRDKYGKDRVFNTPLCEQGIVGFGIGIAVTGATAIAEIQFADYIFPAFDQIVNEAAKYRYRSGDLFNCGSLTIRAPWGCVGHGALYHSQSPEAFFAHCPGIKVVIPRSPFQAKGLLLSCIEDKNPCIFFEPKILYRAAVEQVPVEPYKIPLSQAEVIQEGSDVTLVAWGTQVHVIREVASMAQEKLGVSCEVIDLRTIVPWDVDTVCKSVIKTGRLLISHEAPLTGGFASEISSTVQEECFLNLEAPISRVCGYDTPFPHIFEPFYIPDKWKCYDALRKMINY
BCKDC (E2 subunit DBT), sequence (O08749 36-509 partner): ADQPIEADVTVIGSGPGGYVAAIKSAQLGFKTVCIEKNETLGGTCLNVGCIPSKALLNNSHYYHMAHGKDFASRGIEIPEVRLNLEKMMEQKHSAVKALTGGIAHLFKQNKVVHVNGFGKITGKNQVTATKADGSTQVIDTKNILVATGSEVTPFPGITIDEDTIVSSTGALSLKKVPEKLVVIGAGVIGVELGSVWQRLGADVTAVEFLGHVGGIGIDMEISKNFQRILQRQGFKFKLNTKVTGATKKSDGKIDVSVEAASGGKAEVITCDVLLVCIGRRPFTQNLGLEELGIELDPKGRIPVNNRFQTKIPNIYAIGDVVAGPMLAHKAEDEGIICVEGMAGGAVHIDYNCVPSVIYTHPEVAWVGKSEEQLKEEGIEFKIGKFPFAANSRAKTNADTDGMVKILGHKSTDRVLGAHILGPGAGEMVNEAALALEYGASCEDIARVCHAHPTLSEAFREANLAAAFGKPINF

Row | inhibition at 0.1 µM [2] | Structure (SMILES) | diaphorase activity, NBT-formazan at 568 nm and in-gel [1]
1 |  | NC(=O)C1=CN([C@@H]2O[C@H](COP(=O)(O)OP(=O)(O)OC[C@H]3O[C@@H](n4cnc5c(N)ncnc54)[C@H](O)[C@@H]3O)[C@@H](O)[C@H]2O)C=CC1 [NADH] | As a blank control, the same amount of mitochondria lysate was mixed with assay buffer without NADH
2 | > 50% | CC(C)(COP(=O)(O)OP(=O)(O)OC[C@H]1O[C@@H](n2cnc3c(N)ncnc32)[C@H](O)[C@@H]1OP(=O)(O)O)[C@@H](O)C(=O)NCCC(=O)NCCSN=O [SNO-CoA] | 
